From patent US6034062A, “Bone morphogenetic protein (BMP)-9 compositions and their uses” (Genetics Institute, Inc., priority 1997, dated 2000) come the findings set out here.

In assay [1] the test system is primary rat hepatocytes. The assay is described as follows: Primary rat hepatocyte 3H-thymidine incorporation. It is filed as cell-based. The conditions noted are these: subconfluent primary rat hepatocytes, 36 hours, serum-free. How it is done: As a first indication of BMP-9 effects on confluent, serum starved HepG2 cells, cell proliferation is examined as determined by ^3 H-thymidine incorporation and cell counting. HepG2 cells are plated at […] in 96 well plates and cultured for 48 hours in DME/0.1% FCS to synchronize the cell cycle are treated for 24 hours with or without BMP-9 in the presence of 0.1% FCS. In ^3 H-thymidine incorporation assays, ^3 H-thymidine was included during the last 4 hours of treatment and cellular DNA was collected with a 96 well plate cell harvester. Proliferation was assayed by quantifying ethanol-precipitable ^3 H-thymidine incorporation by liquid scintillation counting. For cell counting assays, cells were trypsinized and counted with a hemacytometer. […] BMP-9 stimulates ^3 H-thymidine incorporation in HepG2 cells approximately five fold.
To determine if this proliferative effect of BMP-9 was unique to the HepG2 liver tumor cell line, primary rat hepatocytes were tested for effects of BMP-9 on ^3 H-thymidine incorporated as shown in FIG. 4.

In assay [2] the test system is BMP-9 receptors expressed on HepG2 cells. The assay is described as follows: 125I-BMP-9 binding to HepG2 cells. The conditions noted are these: HepG2 cells, 125I-BMP-9 and 250-fold excess of unlabeled ligand. How it is done:
BMP-9 responsiveness in parenchymal liver cells is tested by screening four liver cell lines for their ability to bind iodinated, CHO-derived BMP-9. […] Specific binding of BMP-9 to HepG2 cells is carried out by incubating HepG2 cells grown to confluence in Dulbecco's Modified Eagle's Medium (DME) containing 10% heat-inactivated fetal calf serum (FCS) on gelatinized 6 well plates with 2 ng/ml ^125 I-BMP-9 and increasing concentrations of unlabelled BMP-9 in binding buffer (136.9 mM NaCl, 5.37 mM KCl, 1.26 mM CaCl2, 0.64 mM MgSO4, 0.34 mM Na2 HPO4, 0.44 mM KH2 PO4, 0.49 mM MgCl2, 25 mM HEPES and 0.5% BSA, pH 7.4) for 20 hours at 4° C. to achieve binding equilibrium. This incubation follows a one hour preincubation at 37° C. in binding buffer alone. For crosslinking experiments, the cells were incubated with 500 μM disuccinimidyl suberate for 20 minutes at […] following binding. Cell extracts were analyzed on SDS-PAGE. […] To test the binding specificity of the receptors for BMP-9, HepG2 cells were incubated with ^125 I-BMP-9 and a 250-fold excess of different unlabeled ligands.

The subject of assay [3] is Articular cartilage explants from calf carpal joints. The assay is described as follows: Articular cartilage assay (proteoglycan synthesis, sulfate incorporation). The following applies: 100 ng/ml, calf articular cartilage explants. It is filed as cell-based. How it is done: The effect of BMP-9 on articular cartilage proteoglycan and DNA synthesis is assayed to determine if BMP-9 is involved in the regulation of metabolism of differentiated articular cartilage.
Articular cartilage explants from calf carpal joints are maintained in DMEM with 50 μg/ml ascorbate, 4 mM glutamine and antibiotics for 3 days. Cytokines (rhBMP-2, rhBMP-4, rhBMP-6 and rhBMP-9, IGF-1, bFGF (1-1000 ng/ml), and TGFβ (1-100 ng/ml)) are added to the medium and culture is continued for 3 more days. Medium is changed daily. Twenty-four hours prior to harvest, explants are pulsed with 50 μCi/ml ^35 SO4 or 25 μCi/ml ^3 H-thymidine. Explants are solubilized and separation of free isotope is performed by gel chromatography. Total DNA of each explant is measured by a spectrophotometric assay.

Assay [4] deals with IMCD-3 cells. Put plainly: IMCD-3 cell condensation and tubulogenesis in collagen matrix. It counts as cell-based. The conditions noted are these: IMCD-3 cells in 3-dimensional collagen gel, 100 ng/ml, 6 days, serum-free. How it is done: Several cell lines are tested for BMP-9 responsiveness in vitro. Cell proliferation, as indicated by [^3 H]thymidine incorporation, is determined in cell lines derived from kidney and lung. Cell proliferation is determined by measuring [^3 H]thymidine incorporation in subconfluent cells treated for 24 h with or without growth factors. NRK-52E (ATCC CRL 1571), WI-38 (ATCC CCL-75), CCD-11Lu (ATCC CCL-202), CCD-16Lu (ATCC CCL-204), and A-549 (ATCC CCL-185) cell lines are placed at 10^4 cells/well in 96 well plates and assayed for [^3 H]thymidine incorporation as described above. IMCD-3 cells (ATCC #CRL-2123) are cultured in a collagen matrix as described by Barros et al., PNAS USA 92:4412-4416 (1995), and treated with growth factors for 6 days to allow tubule formation.
In contrast, BMP-9 appeared to stimulate proliferation in several fibroblast cell lines derived from lung. […] The effect of rhBMP-9 on tubulogenesis was examined in IMCD-3 cells, another epithelial kidney cell line. […] It is therefore contemplated that both lung and kidney cells are physiological targets for BMP-9.

For the substance “EGF: epidermal growth factor (NSDSECPLSHDGYCLHDGVCMYIEALDKYACNCVVGYIGERCQYRDLKWWELR; UniProt P01133 971-1023, looked up)”, the 3H-thymidine incorporation entry in assay [1] is recorded as “markedly”. On to TGF-β1: transforming growth factor β1, for which the “crossreactivity of BMP-9 receptors with unlabeled ligand” value in assay [2] is recorded as “no crossreactivity”. Further, the 3H-thymidine incorporation result in assay [1] is listed as “inhibitory, not stimulatory”. For TGFβ, the proteoglycan synthesis result in assay [3] is listed as “significantly more active in stimulating proteoglycan synthesis”.

For “rhHGF: recombinant human HGF, inducer of tubulogenesis in IMCD-3 cells”, in assay [4], the “cell condensation and tubulogenesis” value is given as “induced a marked branching tubulogenesis”.
